# According to PMC12387680, “Mohangic Acid H and Mohangiol: New p-Aminoacetophenone Derivatives from a Mudflat-Derived Streptomyces sp” (Marine Drugs, 2025):
# pIC50: −log10 of the molar value. Like-named read-outs stand apart in the source and are kept apart here.
# Assays:
# isocitrate lyase (ICL) = target: T1, isocitrate lyase (ICL) (Candida albicans, UniProt Q9P8Q7); test: biochemical; conditions: for IC50: read-out: IC50 (μg/mL) (converted)
# T1 construct: gene ICL1; recombinant ICL
# E. coli = test system: T2, E. coli; test: microbe, parasite or virus in culture; set-up: broth microdilution antibacterial MIC, growth inhibition; conditions: Escherichia coli, 24 h
# T2 construct: ATCC 25922
# Experimental: (§1) Three species of Gram-positive bacteria (Staphylococcus aureus ATCC 25923, Enterococcus faecalis ATCC 19433, and Enterococcus faecium ATCC 19434) and three species of Gram-negative bacteria (Klebsiella pneumoniae ATCC 10031, Salmonella enterica ATCC 14028, and Escherichia coli ATCC 25922) as human pathogens were selected as test strains and prepared for the antibacterial activity assays. The test bacterial strains were cultured overnight in Mueller–Hinton broth (MHB) at 37 °C for human pathogens and in tryptic soy broth (TSB) at 28 °C for B. thuringiensis. The grown strains were harvested by using a centrifuge and washed twice with sterilized water. Ampicillin and tetracycline were used as positive controls, and dimethyl sulfoxide (DMSO) was used as a negative control. Each compound, including 1 and 2, was dissolved in DMSO and diluted with MHB or TSB to prepare serial two-fold dilutions (from 128 µg/mL to 0.015 µg/mL). For the antibacterial activity assay, 10 µL of suspensions containing 1 × 10^6 colony forming units (CFU)/mL of the test bacteria and 190 µL of MHB or TSB, which included the positive control compounds or test compounds, were added into each well of a 96-well plate (final concentration of test bacteria was 5 × 10^4 CFU/mL). Then, the plate was incubated at 37 °C or 28 °C for 24 h. […] The biological activities of mohangic acid H (1) and mohangiol (2) were evaluated in multiple ways. 1 and 2 were evaluated for inhibitory activities against pathogenic bacteria (Staphylococcus aureus ATCC 25923, Enterococcus faecalis ATCC 19433, Enterococcus faecium ATCC 19434, Salmonella enterica ATCC 14028, Escherichia coli ATCC 25922, Klebsiella pneumoniae ATCC 10031) and fungi (Candida albicans ATCC 10231, Aspergillus fumigatus HIC 6094, Trichophyton rubrum NBRC 9185, Trichophyton mentagrophytes IFM 40996) in broth microdilution MIC assays.
# E. faecalis = test system: T3, E. faecalis; test: microbe, parasite or virus in culture; set-up: broth microdilution antibacterial MIC, growth inhibition; conditions: Enterococcus faecalis, 24 h
# T3 construct: ATCC 19433
# Experimental: as §1
# E. faecium = test system: T4, E. faecium; test: microbe, parasite or virus in culture; set-up: broth microdilution antibacterial MIC, growth inhibition; conditions: Enterococcus faecium, 24 h
# T4 construct: ATCC 19434
# Experimental: as §1
# K. pneumonia = test system: T5, K. pneumonia; test: microbe, parasite or virus in culture; set-up: broth microdilution antibacterial MIC, growth inhibition; conditions: Klebsiella pneumoniae, 24 h
# T5 construct: ATCC 10031
# Experimental: as §1
# S. aureus = test system: T6, S. aureus; test: microbe, parasite or virus in culture; set-up: broth microdilution antibacterial MIC, growth inhibition; conditions: Staphylococcus aureus, 24 h
# T6 construct: ATCC 25923
# Experimental: as §1
# S. enterica = test system: T7, S. enterica; test: microbe, parasite or virus in culture; set-up: broth microdilution antibacterial MIC, growth inhibition; conditions: Salmonella enterica, 24 h
# T7 construct: ATCC 14028
# Experimental: as §1
# A. fumigatus = test system: T8, A. fumigatus; test: microbe, parasite or virus in culture; set-up: broth microdilution antifungal MIC in RPMI 1640, growth inhibition; conditions: Aspergillus fumigatus, 48 h
# T8 construct: HIC 6094
# Experimental: (§2) Potato dextrose agar (PDA) was used to cultivate Candida albicans ATCC 10231. After incubation for 48 h at 28 °C, the yeast cells were harvested by centrifugation and washed twice with sterile distilled water. Aspergillus fumigatus HIC 6094, Trichophyton rubrum NBRC 9185, and Trichophyton mentagrophytes IFM 40,996 were also plated on PDA and incubated for 2 weeks at 28 °C. Spores were harvested and washed twice with sterile distilled water. Stock solutions of 1 and 2 were prepared in DMSO. Each stock solution was diluted with RPMI 1640 broth (Difco, Livonia, MI, USA) to give serial twofold dilutions in the range of 0.06–128 µg/mL. The final DMSO concentration was maintained at 1% by adding DMSO to the broth. Aliquots (10 µL) of the RPMI 1640 broth containing approximately 10^4 cells/mL were mixed with the test compound solutions in each well of a 96-well plate. The plates were incubated for 24 h (for C. albicans), 48 h (for A. fumigatus), and 96 h (for T. rubrum and T. mentagrophytes) at 37 °C. A culture with DMSO (1%) was used as a solvent control, and a culture supplemented with amphotericin B was used as a positive control. The biological activities of mohangic acid H (1) and mohangiol (2) were evaluated in multiple ways. 1 and 2 were evaluated for inhibitory activities against pathogenic bacteria (Staphylococcus aureus ATCC 25923, Enterococcus faecalis ATCC 19433, Enterococcus faecium ATCC 19434, Salmonella enterica ATCC 14028, Escherichia coli ATCC 25922, Klebsiella pneumoniae ATCC 10031) and fungi (Candida albicans ATCC 10231, Aspergillus fumigatus HIC 6094, Trichophyton rubrum NBRC 9185, Trichophyton mentagrophytes IFM 40996) in broth microdilution MIC assays.
# C. albicans = test system: T9, C. albicans; test: microbe, parasite or virus in culture; set-up: broth microdilution antifungal MIC in RPMI 1640, growth inhibition; conditions: Candida albicans, 24 h
# T9 construct: ATCC 10231
# Experimental: as §2
# T. mentagrophytes = test system: T10, T. mentagrophytes; test: microbe, parasite or virus in culture; set-up: broth microdilution antifungal MIC in RPMI 1640, growth inhibition; conditions: Trichophyton mentagrophytes, 96 h
# T10 construct: IFM 40996
# Experimental: as §2
# T. rubrum = test system: T11, T. rubrum; test: microbe, parasite or virus in culture; set-up: broth microdilution antifungal MIC in RPMI 1640, growth inhibition; conditions: Trichophyton rubrum, 96 h
# T11 construct: NBRC 9185
# Experimental: as §2
# T1 sequence (Q9P8Q7 whole entry): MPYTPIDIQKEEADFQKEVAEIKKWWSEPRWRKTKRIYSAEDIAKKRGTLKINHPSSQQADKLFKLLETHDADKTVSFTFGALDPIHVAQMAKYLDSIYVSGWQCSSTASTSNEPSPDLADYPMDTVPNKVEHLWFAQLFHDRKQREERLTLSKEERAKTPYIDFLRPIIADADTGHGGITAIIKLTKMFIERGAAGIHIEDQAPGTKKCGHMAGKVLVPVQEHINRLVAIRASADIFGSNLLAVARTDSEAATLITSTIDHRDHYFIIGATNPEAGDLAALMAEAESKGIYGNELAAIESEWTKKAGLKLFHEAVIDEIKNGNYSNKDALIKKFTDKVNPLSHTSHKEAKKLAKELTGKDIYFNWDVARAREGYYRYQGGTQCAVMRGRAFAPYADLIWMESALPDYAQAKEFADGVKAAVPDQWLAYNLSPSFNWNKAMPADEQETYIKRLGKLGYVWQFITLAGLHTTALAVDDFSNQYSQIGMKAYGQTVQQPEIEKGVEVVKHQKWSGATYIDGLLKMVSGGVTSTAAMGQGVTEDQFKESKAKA
SMILES,IC50 (isocitrate lyase (ICL)),MIC (E. coli),MIC (E. faecalis),MIC (E. faecium),MIC (K. pneumonia),MIC (S. aureus),MIC (S. enterica),MIC (A. fumigatus),MIC (C. albicans),MIC (T. mentagrophytes),MIC (T. rubrum),pIC50 (isocitrate lyase (ICL))
"CC(=O)Nc1ccc(C(=O)C[C@@H](O)[C@H](C)C[C@@H](C)[C@H](O)[C@H](C)/C=C/C=C/C(=O)O)cc1 [compound 1, Mohangic acid H]",49.5 µM,> 128 µM,> 128 µM,> 128 µM,> 128 µM,> 128 µM,> 128 µM,> 128 µM,> 128 µM,> 128 µM,> 128 µM,–
"O=C(O)CC[N+](=O)[O-] [3-nitropropionate, reference compound]",–,–,–,–,–,–,–,–,–,–,–,3.90
"C[C@H](O)CC/C=C/C=C/[C@@H](C)[C@@H](O)[C@H](C)C[C@@H](C)[C@H](O)CC(=O)c1ccc(N)cc1 [compound 2, Mohangiol]",50.6 µM,> 128 µM,> 128 µM,> 128 µM,> 128 µM,> 128 µM,> 128 µM,> 128 µM,> 128 µM,> 128 µM,> 128 µM,–
